Assay results: PubChem BioAssay (NCI)
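Where inhibition never reached the appropriate level, the endpoint shown equals the highest concentration tested. Otherwise, values were interpolated linearly from a five-concentration, 48-hour dose response in 96-well plates. At the GI50, growth is halved. The concentration for full growth arrest is given as TGI.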

Legend:
Assay in all cases: NCI anticancer screen, dose series, 48 h
[1] = system: UACC-62 melanoma
[2] = system: OVCAR-4 ovarian
[3] = system: SK-MEL-28 melanoma
[4] = system: K-562 leukemia
[5] = system: IGROV1 ovarian
[6] = system: SK-OV-3 ovarian
[7] = system: RXF 393 renal
[8] = system: T-47D breast
[9] = system: HS 578T breast
[10] = system: MDA-MB-231 breast

CC1=C(CC2C(=O)N(c3ccccc3)S(=O)(=O)NC2C)C(=O)N(c2ccccc2)S(=O)(=O)N1C (configuration not stated)
TGI [1]: > 100 µM
TGI [2]: > 100 µM
TGI [3]: > 100 µM
TGI [4]: > 100 µM
TGI [5]: > 100 µM
TGI [6]: > 100 µM

CCCC(S(=O)(=O)c1ccccc1)S(=O)(=O)c1ccccc1
TGI [1]: > 100 µM
TGI [7]: > 100 µM
TGI [2]: > 100 µM
TGI [3]: > 100 µM
TGI [4]: > 100 µM
TGI [5]: > 100 µM
TGI [6]: > 100 µM

NC1=NC(=O)C(CC(=O)Nc2ccc(Cl)cc2Cl)S1 (configuration not stated)
TGI [1]: > 100 µM
TGI [2]: > 100 µM
TGI [3]: > 100 µM
TGI [4]: > 100 µM
TGI [5]: > 100 µM
TGI [6]: > 100 µM

C1CSCCSCCCSCCSCCCSCCSCCCSCCSC1
TGI [7]: > 100 µM
TGI [2]: > 100 µM
TGI [3]: > 100 µM
TGI [4]: > 100 µM
TGI [5]: > 100 µM
TGI [8]: > 100 µM
TGI [6]: > 100 µM
TGI [9]: > 100 µM

O=C1C=C(O)C(=Cc2c(O)cc(O)cc2O)C(O)=C1
TGI [1]: > 100 µM
TGI [7]: > 100 µM
TGI [2]: > 100 µM
TGI [4]: > 100 µM
TGI [5]: > 100 µM
TGI [6]: > 100 µM

COc1cc(C(=O)c2cc(C)c3[nH]c4ccc(O)cc4c3c2C)cc(OC)c1OC
GI50 [10]: 0.0355 µM
GI50 [1]: < 0.01 µM
TGI [1]: > 100 µM
GI50 [7]: < 0.01 µM
TGI [7]: 3.11 µM
GI50 [2]: 1.05 µM
TGI [2]: > 100 µM
GI50 [3]: 3.66 µM
TGI [3]: > 100 µM
GI50 [4]: < 0.01 µM
TGI [4]: > 100 µM
GI50 [5]: 0.0169 µM
TGI [5]: 20.5 µM
GI50 [6]: 0.267 µM
TGI [6]: 98.6 µM
GI50 [9]: 0.0141 µM
TGI [9]: > 100 µM

Cc1ccc(C2C3Cc4ccccc4C3=NN2c2ccc(S(=O)(=O)/N=c3\scc(-c4ccccc4)n3-c3ccccc3)cc2)cc1 (configuration not stated)
GI50 [10]: 14.9 µM
TGI [10]: 32.7 µM
GI50 [1]: 14 µM
TGI [1]: 27.7 µM
GI50 [7]: 24.8 µM
TGI [7]: 64.6 µM
GI50 [4]: 14.9 µM
TGI [4]: 32.6 µM
GI50 [5]: 26.5 µM
TGI [5]: > 100 µM
GI50 [8]: 35.5 µM
TGI [8]: > 100 µM
GI50 [6]: 33.1 µM
TGI [6]: > 100 µM
GI50 [9]: 17.2 µM
TGI [9]: 44.8 µM

O=C1c2ccccc2N2OC3(N4CCCC4)CCCCC3C12c1ccccc1 (configuration not stated)
TGI [1]: 40.1 µM
TGI [7]: 39.4 µM
TGI [2]: 28.1 µM
TGI [3]: 76.2 µM
TGI [4]: 59.8 µM
TGI [5]: > 100 µM
TGI [6]: > 100 µM

CC1=C(C(=O)Nc2ccc(Cl)c(Cl)c2)C(c2ccc([N+](=O)[O-])cc2)C(C(=O)Nc2ccc(Cl)c(Cl)c2)=C(C)N1
TGI [1]: 4.46 µM
TGI [7]: 6.16 µM
TGI [2]: 11.8 µM
TGI [3]: 9.93 µM
TGI [5]: 14.8 µM
TGI [6]: 24.8 µM

c1ccc2c(c1)CCc1c-2n[nH]c1-c1[nH]nc2c1CCc1ccccc1-2
TGI [1]: > 100 µM
TGI [3]: > 100 µM
TGI [4]: > 100 µM
TGI [5]: > 100 µM
TGI [6]: > 100 µM

COc1cc(C2(C)SCCCS2)cc(OC)c1OC
TGI [1]: > 100 µM
TGI [2]: > 100 µM
TGI [3]: > 100 µM
TGI [4]: > 100 µM
TGI [5]: > 100 µM
TGI [6]: > 100 µM

CCC(=O)Nc1ccc(N2C(=O)/C(=C/c3ccc(OC)cc3)N=C2c2ccccc2)cc1
GI50 [10]: 4.31 µM
TGI [10]: 14.5 µM
GI50 [1]: 3.67 µM
TGI [1]: 17.7 µM
GI50 [7]: 11.3 µM
TGI [7]: > 50 µM
GI50 [2]: 16.2 µM
TGI [2]: > 50 µM
GI50 [3]: 14.6 µM
TGI [3]: > 50 µM
GI50 [4]: 5.57 µM
TGI [4]: > 50 µM
GI50 [5]: 14.1 µM
TGI [5]: > 50 µM
GI50 [9]: 14.1 µM
TGI [9]: > 50 µM

CC(C)C[C@H](NC(=O)CCn1ccc2ccccc2c1=O)B(O)O
GI50 [10]: 9.45 µM
TGI [10]: 59.3 µM
GI50 [1]: 4.29 µM
TGI [1]: 24.9 µM
GI50 [2]: 17 µM
TGI [2]: > 100 µM
GI50 [3]: 3.27 µM
TGI [3]: > 100 µM
GI50 [4]: 4.97 µM
TGI [4]: > 100 µM
GI50 [5]: 12.3 µM
TGI [5]: > 100 µM
GI50 [8]: 3.71 µM
TGI [8]: 29.3 µM
GI50 [6]: 4.72 µM
TGI [6]: 81.3 µM
GI50 [9]: 3.63 µM
TGI [9]: 48.7 µM

COc1ccc(OC(=O)CC2Cc3cc(OC)c(OC)c(OC)c3-c3ccc(SC)c(=O)cc32)cc1 (configuration not stated)
TGI [1]: 21 µM
TGI [2]: > 100 µM
TGI [3]: 98.9 µM
TGI [4]: > 100 µM
TGI [5]: > 100 µM
TGI [6]: 61.4 µM

CCOc1ccc(NC(=O)CCc2nnc(SC)o2)cc1
TGI [1]: > 100 µM
TGI [7]: > 100 µM
TGI [2]: > 100 µM
TGI [3]: > 100 µM
TGI [4]: > 100 µM
TGI [5]: > 100 µM
TGI [6]: > 100 µM

CC(=O)/C(=C\c1ccccc1O)C(=O)Nc1ccccc1C
TGI [1]: 68.7 µM
TGI [7]: 37.5 µM
TGI [2]: > 100 µM
TGI [3]: 53.8 µM
TGI [4]: > 100 µM
TGI [5]: 79 µM
TGI [6]: > 100 µM

Cc1ccccc1-n1c(N)c(-c2nc3ccccc3[nH]2)sc1=S
TGI [1]: 37.1 µM
TGI [7]: 62.4 µM
TGI [2]: 78.3 µM
TGI [3]: 39.3 µM
TGI [4]: > 100 µM
TGI [5]: 57 µM
TGI [6]: 72.6 µM

COc1ccc(-c2cc(=O)c3c(O)cccc3o2)c(OC)c1OC
TGI [1]: > 100 µM
TGI [7]: > 100 µM
TGI [2]: > 100 µM
TGI [3]: > 100 µM
TGI [4]: > 100 µM
TGI [5]: > 100 µM
TGI [6]: > 100 µM

COc1ccc(-c2[nH]c3ccccc3c2CCNS(=O)(=O)c2ccc(C)cc2)cc1
TGI [1]: > 10 µM
TGI [7]: > 10 µM
TGI [3]: > 10 µM
TGI [4]: > 10 µM
TGI [5]: > 10 µM
TGI [6]: > 10 µM

C[CH2][Hg][S]c1ccccc1C(=O)O
GI50 [10]: 1.26 µM
TGI [10]: 2.58 µM
GI50 [1]: 1.36 µM
TGI [1]: 2.98 µM
GI50 [2]: 2.01 µM
TGI [2]: 7 µM
GI50 [3]: 1.71 µM
TGI [3]: 3.69 µM
GI50 [5]: 1.37 µM
TGI [5]: 4.42 µM
GI50 [8]: 0.522 µM
TGI [8]: 2.79 µM
GI50 [6]: 2.77 µM
TGI [6]: 8.21 µM
GI50 [9]: 2.08 µM
TGI [9]: > 100 µM

Cc1cccc(NC(=O)/C(=N\N)C(c2cnc3ccc([N+](=O)[O-])cc3n2)[N+](=O)[O-])c1C (configuration not stated)
TGI [1]: > 100 µM
TGI [7]: > 100 µM
TGI [2]: > 100 µM
TGI [3]: > 100 µM
TGI [5]: > 100 µM
TGI [6]: > 100 µM

CC(=O)O[C@@H]1C[C@@]2(C)[C@@H]3CC=C4[C@@H](C[C@H](O)C(=O)C4(C)C)[C@]3(C)C(=O)C[C@]2(C)[C@H]1[C@@](C)(O)C(=O)/C=C/C(C)(C)OC(C)=O
TGI [10]: > 21.8 µM
TGI [1]: 27.9 µM
TGI [2]: > 32.3 µM
TGI [3]: 29.4 µM
TGI [4]: > 100 µM
TGI [5]: 10.2 µM
TGI [8]: > 67.8 µM
TGI [6]: 51.5 µM
TGI [9]: > 100 µM

O=C(NCCNCCO)c1cccc2ccc(-c3ccccc3)nc12
TGI [1]: 13.8 µM
TGI [7]: 15.5 µM
TGI [2]: 18.5 µM
TGI [3]: 22.1 µM
TGI [4]: > 100 µM
TGI [5]: 13.2 µM
TGI [6]: 27.7 µM
